5 compounds from US20160263140A1, “USE OF COMPOUNDS ACTIVATING SIRT-3 FOR MIMICKING EXERCISE” (President and Fellows of Harvard College, priority 2007, published 2016) can be followed below.

Each structure is given as a SMILES string. “Also recorded” adds a separate entry of the source.

Data set [1] deals with HEK293 cells. The data set can be described thus: Cell death assay after MMS treatment (FACS, propidium iodide). Particulars: for effect on Nampt-mediated cell protection/survival against MMS: HEK293 cells stably overexpressing Nampt, MMS treatment, sirtinol 100 μM. The format is cell-based. As to the method:
Human embryonic kidney (HEK293) and human fibrosarcoma HT1080 cell lines were obtained from ATCC and grown in complete DMEM medium with 10% FBS and 100 μg/ml penicillin/streptomycin. To generate Nampt overexpression or empty vector stable clones, hNAMPT/pcDNA or pcDNA empty vector were transfected into HEK293 or HT1080 cells and selected with 0.5-1.0 mg/ml geneticin. To generate Nampt knockdown cells, siRNA/NAMPT/pMSCV or pMSCV empty vector were transfected into HT1080 cells, and stable clones were selected with 500 ng/ml puromycin. Primary neonatal rat cardiomyocytes were prepared as described previously (Matsui et al., 1999). Isolated cardiomyocytes were grown in complete medium (RPMI 1640, 5% fetal calf serum, 10% horse serum) to 80% confluence before cells were subjected to hypoxia and/or serum starvation. For hypoxia, medium was changed to RPMI 1640 with or without serum saturated with 95% N2/5% CO2 and then cells were placed in a 37° C. airtight box saturated with 95% N2/5% CO2 for 18 hours. O2 concentrations were <0.1% (Ohmeda oxygen monitor, type 5120). To serum starve HT1080, cells were grown in DMEM medium containing no serum. Cells were harvested after 26 h of serum starvation and Nampt expression was analyzed by Western blotting.
(§1) HEK293 and HT1080 cells at less than 85% confluency were treated with MMS (1.2 mM) for 6-8.5 h and 8-17 h, respectively. Transiently transfected cells were washed 3 times with PBS to remove residual transfection reagents before treating with MMS. HEK293 cells and HT1080 cells were exposed to etoposide for 72 h or 46 h, at 120 or 40 μM, respectively. HT1080 cells were exposed to camptothecin at 14 μM for 23 h. After drug treatments, cells were harvested by trypsinization, pelleted by centrifugation and resuspended in PBS containing 3% FBS. Cell death was analyzed by FACS using propidium iodide (PI) staining. Cells transiently-transfected with mNAMPT/MSCV, SIRT1-7 siRNA, Nmnat-3, or hMFT siRNA oligos and co-transfected with FAM-labeled scrambled siRNA oligos, percent cell death was determined by as the proportion of PUGFP or PIFAM positive cells versus the total number of cells with green fluorescence.

The subject of data set [2] is mitochondria from fresh rat livers. The data set can be described thus: NAD+ levels in isolated liver mitochondria by HPLC-MALDI-MS. Particulars: for change of mitochondrial NAD+ levels (in words): FK866 10 nM and/or MMS 1:1000, 30 min at 37° C. As to the method: Unless otherwise stated, fractionation of cultured cells was performed using a differential centrifugation and sucrose gradient procedure with slight modifications (Schwer et al., 2002). For drug treatment of mitochondria, fresh mitochondria were obtained from livers excised from fed young male rats. Half of the liver homogenate was used for mitochondrial isolation using a commercially available kit as described by manufacturer's instructions, designated Protocol 1 (Pierce Mitochondrial Isolation kit, Rockford, Ill.). The other half of the original homogenate was subjected to a differential centrifugation protocol to isolate mitochondria (Protocol 2). Mitochondria (500 μl) were added to a 48-well plate and treated with methylmethane sulfonate (MMS) at 1:1000 dilution and/or FK866 (10 nM) for 30 min at 37° C. Suspensions were spun down for 1 min at 14,000 rpm at 4° C. and pellets were stored at −80° C. prior to NAD^+ analysis by HPLC-MALDI-MS. Detailed protocols are described in Supplemental Information.
NAD^+ was determined by as described previously (Sauve and Schramm, 2003), with the following modifications. HEK293 or HT1080 cells were harvested by trypsinization and counted by haemocytometer. NAD^+ was extracted from whole cells or mitochondrial pellets by adding 10% perchloric acid and sonicating for 5 min on ice. The reference standard ^18O-NAD^+ (typically […]) was then added to the sample. After mixing well, samples were centrifuged for 3 min then neutralized with NaOH. NAD^+ in the supernatant (100 μL sample) was separated from other cellular components by HPLC. NAD^+ peaks were collected according to the standards' retention time and dried with a lyophilizor. […] The volume of mitochondrial pellets was calculated by considering the density of the mitochondria pellets to be 1.0 μL/mg. Total cellular NAD^+ concentrations were calculated by dividing the quantity of NAD^+ per cell by the mean cell volume (MCV) as measured by a Coulter counter, which for HT1080 was […] and for HEK293 was […]. […]

The subject of data set [3] is HEK293 cells. As to the kind of experiment: Total cellular NAD+ by HPLC-MALDI-MS after MMS. Particulars: 1.2 mM MMS, 2 and 4 h, irrespective of Nampt levels. The format is cell-based, human. Here is the method:
as §1
NAD^+ was determined by as described previously (Sauve and Schramm, 2003), with the following modifications. HEK293 or HT1080 cells were harvested by trypsinization and counted by haemocytometer. NAD^+ was extracted from whole cells or mitochondrial pellets by adding 10% perchloric acid and sonicating for 5 min on ice. […] The volume of mitochondrial pellets was calculated by considering the density of the mitochondria pellets to be 1.0 μL/mg. […]

A further data set deals with GLUT4. The data set can be described thus: GLUT4 protein expression in SIRT3-expressing C2C12 myotubes (Western blot). The following applies: 40 μM, 3-hour treatment. The format is cell-based, murine. As to the method:
(§2) C2C12 myocytes and BOSC23 cells were cultured in Dulbecco's modified Eagle's medium containing 10% bovine calf serum. For C2C12 differentiation, at confluence, cells were incubated in Dulbecco's modified Eagle's medium with 2% horse serum (Hyclone, Logan, Utah) for three days. Inhibition of AMPK in selected studies was achieved by adding compound C (6-[4-(2-Piperidin-1-yl-ethoxy)-phenyl)]-3-pyridin-4-yl-pyrrazolo[1,5-a]-pyrimidine, Merck) (31) to the media for 3 hours at a final concentration of 40 μM. […]
In general terms: A western blot detects proteins with antibodies after separation by electrophoresis.

Another data set deals with AMPK. As to the kind of experiment: AMPK phosphorylation in C2C12 myotubes (Western blot). The following applies: 40 μM, 3-hour treatment; vector- and SIRT3-transfected C2C12 myotubes. The format is cell-based, murine. As to the method:
as §2

Regarding `O=C1NCCc2c(OCCCCN3CCCCC3)cccc21` [DPQ, 3,4-dihydro-5-[4-(1-piperidinyl)butoxy]-1(2H)-isoquinolinone], the “extent of MMS-induced cell death” value with HEK293 cells [1] (HEK293 cells, MMS, 30 μM DPQ) is “greatly reduced; also recorded: Attenuated”.
Consider `O=C(/C=C/c1cccnc1)NCCCCC1CCN(C(=O)c2ccccc2)CC1` [FK866], for which the “change of mitochondrial NAD+ levels (in words)” value in data set [2] is reported as “even larger decreases in mitochondrial NAD+ levels; also recorded: reduced”. Besides, in the data set on HEK293 cells [1], the “effect on Nampt-mediated cell protection/survival against MMS” value was “prevented cell protection by Nampt overexpression; also recorded: the effect is blocked”.
Turning to `COS(C)(=O)=O` [MMS, methylmethane sulfonate], in data set [2], the “change of mitochondrial NAD+ levels (in words)” value was “reduced”. For the same compound, the “reduction of mitochondrial NAD+ levels” value in data set [2] (MMS 1:1000 dilution, 30 min at 37° C.) was approximately 2 fold. In the data set with HEK293 cells [3], the “total NAD+ concentration after MMS treatment” value was less than 100 µM. In addition, in the data set with HEK293 cells [1] (1.2 mM MMS, vector control cells), the “cell death caused by MMS treatment” value was “death of about half the vector control cells”.
For the compound `c1cc(-c2cnn3cc(-c4ccc(OCCN5CCCCC5)cc4)cnc23)ccn1` [compound C], the “ability of SIRT3 to increase GLUT4 protein expression” value in the data set with GLUT4 is “completely abolished”. Besides, the AMPK phosphorylation entry in the data set on AMPK is recorded as “decreased AMPK phosphorylation”.
For `CC(NC(=O)c1ccccc1/N=C/c1c(O)ccc2ccccc12)c1ccccc1` (stereo not shown) [sirtinol], the “effect on Nampt-mediated cell protection/survival against MMS” value in the data set with HEK293 cells [1] is recorded as “did block the ability of Nampt overexpression to protect cells”.
